# Reference: patent publication US11440903B2, “Salt form and crystal form of compound as FGFR4 inhibitor and preparation method thereof” (GUANGDONG ZHONGSHENG PHARMACEUTICAL CO., LTD, priority 2017, dated 2022)
# Assay: Solid stability test of the crystal forms (influence factors and acceleration tests; appearance, XRPD, HPLC content and impurities)
# Assay type: physicochemical
# Conditions: for photostability (stability under light radiation), conclusion in words / stability in dark, conclusion in words / stability under acceleration conditions, conclusion in words / thermal stability (high temperature), conclusion in words: conclusion of influence factors and acceleration tests
# Source text: A sample of the crystal form A was placed on the bottom of a glass sample bottle, and spread to a thin layer. The sample stored under high temperature, high humidity, and acceleration conditions was placed in a bottle of which the mouth was packed with a pierced aluminum foil to ensure the sample to be sufficiently exposed to ambient air; the sample stored under light radiation conditions was placed at room temperature in a standing bottle of which the mouth was open, the sample was exposed to a light resource, and sampled for detection after being radiated by sufficient energy. Samples were taken and analyzed at various time points, and the test results were compared with the initial test results of 0 day, the inspection items included appearance, content and impurities, and the test results are shown in Table 9.
# A sample of the crystal form B (10 mg) was placed on the bottom of a glass sample bottle, and spread to a thin layer. The sample stored under high temperature, high humidity, and acceleration conditions were placed in a bottle of which the mouth was packed with a pierced aluminum foil to ensure the sample to be sufficiently exposed to ambient air; the sample stored under light radiation conditions was placed at room temperature in a standing bottle of which the mouth was open, the sample was exposed to a light resource, and sampled for detection after being radiated by sufficient energy, the control sample stored in dark (open, the whole sample bottle was sealed with aluminum foil to keep the content in dark) and the sample stored under light radiation conditions were placed together to exclude environmental influence on the samples. Samples were taken and analyzed at various time points, and the test results were compared with the initial test results of 0 day, the inspection items included appearance, crystal form, content and impurities, the test results are shown in Table 10.
# (§1) A sample of the crystal form C was taken and placed on the bottom of a glass sample bottle, and spread to a thin layer. The sample stored under high temperature, high humidity, and acceleration conditions was placed in a bottle of which the mouth was packed with a pierced aluminum foil to ensure the sample to be sufficiently exposed to ambient air; the sample stored under light radiation conditions was placed at room temperature in a standing bottle of which the mouth was open, the sample was exposed to a light resource, and sampled for detection after being radiated by sufficient energy. Samples were taken and analyzed at various time points, and the test results were compared with the initial test results of 0 day.
# as §1, with “D” for “C”
# A sample of the crystal form E (10 mg) was taken and placed on the bottom of a glass sample bottle, and spread to a thin layer. […]
# [1] = Acceleration test (40° C./relative humidity of 75%, open), 1 month
# [2] = Acceleration test (40° C./relative humidity of 75%, open), 2 months
# [3] = Acceleration test (40° C./relative humidity of 75%, open), 3 months
# [4] = Acceleration test (40° C./relative humidity of 75%, open), 10 days
# [5] = Acceleration test (60° C./relative humidity of 75%, open), 1 month
# [6] = Acceleration test (60° C./relative humidity of 75%, open), 2 months
# [7] = Acceleration test (60° C./relative humidity of 75%, open), 3 months
# [8] = Acceleration test (60° C./relative humidity of 75%, open), 10 days
# [9] = High humidity (room temperature/relative humidity of 92.5%, open), 5 days
# [10] = High humidity (room temperature/relative humidity of 92.5%, open), 10 days
# [11] = High temperature (60° C., open), 5 days
# [12] = High temperature (60° C., open), 10 days
# [13] = Light radiation (total illumination: 1.2 × 10^6 Lux·hr/near ultraviolet: 200 w·hr/m^2, open), light radiation sample
# [14] = Light radiation test, control sample in dark
structure (smiles),measurement,setting,value
C=CC(=O)N[C@H]1COC[C@H]1Nc1ncc(/C=C(\F)c2c(Cl)c(OC)cc(OC)c2Cl)cn1 [Crystal Form B],Appearance,0 day (initial),Off-white
same,Content (%),0 day (initial),99.21%
same,Crystal Form (XRPD),0 day (initial),form B
same,Total Impurities (%),0 day (initial),0.41%
same,Appearance,[1],Off-white
same,Content (%),[1],99.49%
same,Crystal Form (XRPD),[1],form B
same,Total Impurities (%),[1],0.43%
same,Appearance,[2],Off-white
same,Crystal Form (XRPD),[2],form B
same,Appearance,[3],Off-white
same,Content (%),[3],96.23%
same,Crystal Form (XRPD),[3],form B
same,Total Impurities (%),[3],0.31%
same,Appearance,[4],Off-white
same,Content (%),[4],101.21%
same,Crystal Form (XRPD),[4],form B
same,Total Impurities (%),[4],0.43%
same,Appearance,[5],Off-white
same,Content (%),[5],98.68%
same,Crystal Form (XRPD),[5],form B
same,Total Impurities (%),[5],0.42%
same,Appearance,[6],Off-white
same,Crystal Form (XRPD),[6],form B
same,Appearance,[7],Off-white
same,Content (%),[7],96.71%
same,Crystal Form (XRPD),[7],form B
same,Total Impurities (%),[7],0.31%
same,Appearance,[8],Off-white
same,Content (%),[8],100.91%
same,Crystal Form (XRPD),[8],form B
same,Total Impurities (%),[8],0.42%
same,Appearance,[9],Off-white
same,Crystal Form (XRPD),[9],form B
same,Appearance,[10],Off-white
same,Content (%),[10],101.03%
same,Crystal Form (XRPD),[10],form B
same,Total Impurities (%),[10],0.42%
same,Appearance,[11],Off-white
same,Crystal Form (XRPD),[11],form B
same,Appearance,[12],Off-white
same,Content (%),[12],100.74%
same,Crystal Form (XRPD),[12],form B
same,Total Impurities (%),[12],0.42%
same,Appearance,[13],Off-white
same,Content (%),[13],92.90%
same,Crystal Form (XRPD),[13],form B
same,Total Impurities (%),[13],2.21%
same,Appearance,[14],Off-white
same,Content (%),[14],100.23%
same,Crystal Form (XRPD),[14],form B
same,Total Impurities (%),[14],0.42%
same,"photostability (stability under light radiation), conclusion in words",,slight impurity generation
same,"stability in dark, conclusion in words",,good stability
same,"stability under acceleration conditions, conclusion in words",,superior
same,"thermal stability (high temperature), conclusion in words",,superior
C=CC(=O)N[C@H]1COC[C@H]1Nc1ncc(/C=C(\F)c2c(Cl)c(OC)cc(OC)c2Cl)cn1.CS(=O)(=O)O [Crystal Form E],Appearance,0 day (initial),White
same,Content (%),0 day (initial),101.51%
same,Crystal Form (XRPD),0 day (initial),form E
same,Total Impurities (%),0 day (initial),0.44%
same,Appearance,[1],White
same,Content (%),[1],102.95%
same,Crystal Form (XRPD),[1],form E
same,Total Impurities (%),[1],0.33%
same,Appearance,[4],White
same,Content (%),[4],99.58%
same,Crystal Form (XRPD),[4],form E
same,Total Impurities (%),[4],0.35%
same,Appearance,[5],White
same,Content (%),[5],102.48%
same,Crystal Form (XRPD),[5],form E
same,Total Impurities (%),[5],0.40%
same,Appearance,[8],White
same,Content (%),[8],100.38%
same,Crystal Form (XRPD),[8],form E
same,Total Impurities (%),[8],0.37%
same,Appearance,[9],White
same,Crystal Form (XRPD),[9],form E
same,Appearance,[10],White
same,Content (%),[10],101.24%
same,Crystal Form (XRPD),[10],form E
same,Total Impurities (%),[10],0.34%
same,Appearance,[11],White
same,Crystal Form (XRPD),[11],form E
same,Appearance,[12],White
same,Content (%),[12],100.37%
same,Crystal Form (XRPD),[12],form E
same,Total Impurities (%),[12],0.50%
same,Appearance,[13],White
same,Content (%),[13],98.70%
same,Crystal Form (XRPD),[13],form E
same,Total Impurities (%),[13],0.49%
same,Appearance,[14],White
same,Content (%),[14],100.87%
same,Crystal Form (XRPD),[14],form E
same,Total Impurities (%),[14],0.37%
same,"photostability (stability under light radiation), conclusion in words",,slight impurity generation
same,"stability in dark, conclusion in words",,good stability
same,"stability under acceleration conditions, conclusion in words",,superior
same,"thermal stability (high temperature), conclusion in words",,superior
